Results as given in patent US8623916B2, “Polyunsaturated fatty acid and diol ester as an anti-acne agent” (Pierre Fabre Dermo-Cosmetique, priority 2008, dated 2014).

Columns and labels:
[1] = system: Staphylococcus aureus ATCC6538; assay: Kinetics of antibacterial activity (residual CFU count), Staphylococcus aureus; assay type: cell-based; details: S. aureus
Source text: (§1) The kinetics of the antibacterial activity of 1,2-octanediol were studied by evaluating the lethality of the bacteria over time by counting residual colony-forming units (CFUs) after contact of the test solution with the bacterial suspension.
(§2) The bacterial strains used are: Staphylococcus aureus ATCC6538 and Propionibacterium acnes ATCC6919. The culture medium used for Staphylococcus aureus ATCC6538 is Trypcase Soy Agar whereas the culture medium used for Propionibacterium acnes ATCC6919 is Schaedler agar. Stock solutions containing 1% and 0.5% 1,2-octanediol are prepared extemporaneously in 1% Polysorbate 20 (qsp WFI) and then adjusted to pH 7 with 0.1 N NaOH solution.
(§3) A volume of 5 ml of each stock solution is inoculated with 50 μl bacterial suspension titrated at roughly 1×10^8 CFU/ml.
(§4) After each time of contact (contact times tested: 5 min, 15 min, 30 min and 60 min), residual bacteria are counted by taking a 1 ml aliquot neutralized by 9 ml Trypcase Soy Broth and 10% Polysorbate 80.
(§5) Counting is carried out by adding 1 ml neutralized mixture and four 1/10 serial dilutions to the corresponding agar plates.
(§6) The agar plates are incubated at 36° C.±1° C. in aerobic atmosphere for S. aureus and anaerobic atmosphere for P. acnes (Generbag anaer, Biomerieux) for 72 hours and then the CFUs are counted.
(§7) • with R meaning “reduction”. It refers to the ratio between the number of inoculated bacteria and the number of residual bacteria after contact of the test solution with the bacterial suspension.

[2] = system: Propionibacterium acnes ATCC6919; assay: Kinetics of antibacterial activity (residual CFU count), Propionibacterium acnes; assay type: cell-based; details: for Log R: P. acnes
Source text: as §1, §2, §3, §4, §5, §6, §7

[3] = system: release of arachidonic acid and eicosanoids by HaCaT keratinocytes; assay: Arachidonic acid metabolism in [3H]AA-labeled HaCaT keratinocytes stimulated by PMA/A23187; assay type: cell-based, human; details: HaCaT pretreated with PUFA 24 h, 500 nM PMA and 1 μM A23187 for 5 hours (FIGS. 4A-4C)
Description: HaCaT keratinocytes were incubated in 24-well plates in the presence of 1 μCi [^3H]AA for 18 hours under an atmosphere of 5% CO2. To test the capacity of
PUFAs to modulate the inflammatory response of keratinocytes, [^3H]-labeled HaCaT cells are pretreated with PUFAs for 24 hours, rinsed and then stimulated by 500 nM PMA and 1 μM A23187 for 5 hours. [^3H]AA and metabolites released by the HaCaT cells in the culture medium are extracted by column chromatography. The eluate is evaporated under N2. The dry residue is taken up in methanol and deposited on thin-layer silica plates activated beforehand for 1 hour at 100° C. The developing solvent is the organic phase of the mixture ethyl acetate/water/isooctane/acetic acid (110:100:50:20, v/v). [^3H]AA and metabolites (6-keto-prostaglandin F1α, 6k-PGF1α; prostaglandin (PG) FαE2D2; thromboxane (TX) B2, leukotrienes (LT) B4, C4, D4) are identified by a Berthold TLC scanner.

[4] = system: interleukin 8 release by human HaCaT keratinocytes; details: 24 h with PUFA, then PMA/A23187 for 6 h (FIG. 3)
Description: The anti-inflammatory potential of the PUFAs was tested on human keratinocytes (HaCaT) stimulated by PMA/A23187. The changes induced by these PUFAs are evaluated on the production of eicosanoids and an inflammatory cytokine, interleukin 8, during an inflammatory process triggered by PMA/A23187. HaCaT cells are incubated on 96-well plates for 24 h in the presence of PUFAs, rinsed and then stimulated by PMA/A23187. The supernatants are recovered after 6 h of stimulation and IL-8 is quantified using the OptEIA™ ELISA kit (BD Pharmingen).

P. acnes strain = assay: Antibacterial activity of the diols, MIC micromethod in liquid medium, P. acnes strain; assay type: cell-based, Propionibacterium acnes
Description: Tests were carried out with eight microbial strains using the dilution method described below.
Minimum inhibitory concentrations (MICs) are determined using a micromethod in liquid medium. Successive 1/2 dilutions of the test products in culture medium (Trypcase Soy Broth) are carried out in 96-well microplates in a final volume of 0.1 ml. The wells are inoculated with 0.01 ml of the bacterial suspensions titrated at roughly 1×10^7 CFU/ml. The microplates are incubated in optimal growth conditions and the MIC is read visually.
The columns labeled “BS” represent the bacteriostatic activity and the columns labeled “BC” represent the bactericidal activity of the diols (1% corresponds to a concentration of 10 mg/ml).

## CCCCCCC(O)CO (stereo not drawn) [1,2-octanediol]
[1]; 0.5%, pH 7, contact 5 min
  Log R: 0.4
[1]; 0.5%, pH 7, contact 15 min
  Log R: 0.1
[1]; 0.5%, pH 7, contact 30 min
  Log R: 0.2
[1]; 0.5%, pH 7, contact 60 min
  Log R: 0.5
[1]; 1%, pH 7, contact 5 min
  Log R: >5.3
[1]; 1%, pH 7, contact 15 min
  Log R: >5.3
[1]; 1%, pH 7, contact 30 min
  Log R: >5.3
[1]; 1%, pH 7, contact 60 min
  Log R: >5.3
[2]; 0.5%, physiological pH, one hour of contact
  decrease of the population of P. acnes: greater than 99.9%
[2]; 0.5%, pH 7, contact 5 min
  Log R: 0.2
[2]; 0.5%, pH 7, contact 15 min
  Log R: 0.7
[2]; 0.5%, pH 7, contact 30 min
  Log R: 1.8
[2]; 0.5%, pH 7, contact 60 min
  Log R: 3
[2]; 1%, pH 7, contact 5 min
  Log R: >5
[2]; 1%, pH 7, contact 15 min
  Log R: >5
[2]; 1%, pH 7, contact 30 min
  Log R: >5
[2]; 1%, pH 7, contact 60 min
  Log R: >5

## CCCCC/C=C\C/C=C\CCCCCCCC(=O)O [linoleic acid]
[3]
  release of arachidonic acid: significantly inhibits
  release of cyclooxygenated metabolites: significantly inhibits
  release of lipoxygenated metabolites: significantly inhibits

## CCCCC/C=C\C/C=C\C/C=C\CCCCC(=O)O [γ-linolenic acid]
[4]
  effect on IL-8 secretion of stimulated keratinocytes: inhibitory effect

## CCCCCCC(O)CCO (stereo not drawn) [1,3-nonanediol]
P. acnes strain
  bactericidal effect concentration (BC): 3.12 mg/mL
  bacteriostatic effect concentration (BS): 1.56 mg/mL

## CC/C=C\C/C=C\C/C=C\C/C=C\CCCCC(=O)O [stearidonic acid]
[3]
  release of arachidonic acid: significantly inhibits
  release of cyclooxygenated metabolites: significantly inhibits
  release of lipoxygenated metabolites: significantly inhibits

## CC/C=C\C/C=C\C/C=C\CCCCCCCC(=O)O [α-linolenic acid]
[4]
  effect on IL-8 secretion of stimulated keratinocytes: inhibitory effect
[3]
  release of arachidonic acid: significantly inhibits
  release of cyclooxygenated metabolites: significantly inhibits
  release of lipoxygenated metabolites: significantly inhibits
